{"source": "paper PMC5026937", "about": "(Antiviral research, 2016)", "key": {"A/WSN/33 (H1N1) [1]": {"test_system": "A/WSN/33 (H1N1)", "assay_type": "cell-based"}, "A/Udorn/72 (H3N2)": {"test_system": "A/Udorn/72 (H3N2)", "assay_type": "cell-based"}, "[2]": {"test_system": "A/Switzerland/9715293/2013 (H3N2)", "assay_type": "cell-based"}, "[3]": {"test_system": "A/California/07/2009 (H1N1)", "assay_type": "cell-based"}, "A/Texas/04/2009 (H1N1)": {"test_system": "A/Texas/04/2009 (H1N1)", "assay_type": "cell-based"}, "[4]": {"test_system": "A/Denmark/524/2009 (H1N1)", "assay_type": "cell-based"}, "[5]": {"test_system": "A/Denmark/528/2009 (H1N1)", "assay_type": "cell-based"}, "[6]": {"test_system": "B/Wisconsin/1/2010 (Yamagata)", "assay_type": "cell-based"}, "[7]": {"test_system": "B/Brisbane/60/2008 (Victoria)", "assay_type": "cell-based"}, "[8]": {"test_system": "B/Phuket/3073/2013 (Yamagata)", "assay_type": "cell-based"}, "A/WSN/33 (H1N1) [9]": {"test_system": "A/WSN/33 (H1N1)", "assay_type": "cell-based, Influenza A virus"}, "[10]": {"biological_target": "A/WSN/33 (H1N1) viral polymerase activity (Influenza A virus, UniProt P15682)", "sequence (P15682 whole entry, looked up)": "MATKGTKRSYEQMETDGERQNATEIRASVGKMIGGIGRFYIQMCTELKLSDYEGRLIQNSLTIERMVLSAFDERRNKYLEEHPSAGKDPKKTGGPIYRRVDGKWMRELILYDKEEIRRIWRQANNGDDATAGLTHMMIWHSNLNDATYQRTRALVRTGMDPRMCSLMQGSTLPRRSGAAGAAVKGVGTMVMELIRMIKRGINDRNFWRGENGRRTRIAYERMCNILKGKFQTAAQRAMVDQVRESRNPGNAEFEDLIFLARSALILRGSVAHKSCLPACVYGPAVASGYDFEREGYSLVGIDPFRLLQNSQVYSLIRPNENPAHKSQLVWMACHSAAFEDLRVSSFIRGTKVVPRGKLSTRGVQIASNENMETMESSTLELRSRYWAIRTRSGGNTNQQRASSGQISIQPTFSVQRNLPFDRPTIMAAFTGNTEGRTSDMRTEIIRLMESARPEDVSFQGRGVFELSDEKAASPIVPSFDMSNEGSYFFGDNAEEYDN", "assay_type": "cell-based, influenza A/WSN/33 virus"}, "[11]": {"test_system": "clinically isolated influenza A and B viruses", "assay_type": "cell-based"}, "[12]": {"test_system": "isomerase activity of CypA", "settings": "ref Ni et al., 2009; cited from earlier work"}}, "note": "“Also recorded” adds a separate entry of the source.", "data": [{"compound": "Cyclosporine C [CsC (3)]", "values": [{"measurement": "antiviral efficacy against A/WSN/33 (H1N1) compared with CsA (1)", "setting": "A/WSN/33 (H1N1) [1]", "value": "less active; also recorded: slightly less effective than CsA (1)"}]}, {"compound": "NC12CC3CC(CC(C3)C1)C2", "note": "[Amantadine, amantadine]", "values": [{"measurement": "Sensitivity of influenza strain to drug", "setting": "A/WSN/33 (H1N1) [1]", "value": "R (S31N)"}, {"measurement": "Sensitivity of influenza strain to drug", "setting": "A/Udorn/72 (H3N2)", "value": "S"}, {"measurement": "Sensitivity of influenza strain to drug", "setting": "[2]", "value": "R (S31N)"}, {"measurement": "Sensitivity of influenza strain to drug", "setting": "[3]", "value": "R (S31N)"}, {"measurement": "Sensitivity of influenza strain to drug", "setting": "A/Texas/04/2009 (H1N1)", "value": "R (S31N)"}, {"measurement": "Sensitivity of influenza strain to drug", "setting": "[4]", "value": "R(S31N)"}, {"measurement": "Sensitivity of influenza strain to drug", "setting": "[5]", "value": "R (S31N)"}, {"measurement": "Sensitivity of influenza strain to drug", "setting": "[6]", "value": "R"}, {"measurement": "Sensitivity of influenza strain to drug", "setting": "[7]", "value": "R"}, {"measurement": "Sensitivity of influenza strain to drug", "setting": "[8]", "value": "R"}]}, {"compound": "CCC(CC)O[C@@H]1C=C(C(=O)O)C[C@H](N)[C@H]1NC(C)=O", "note": "[Oseltamivir carboxylate, oseltamivir carboxylate]", "values": [{"measurement": "Sensitivity of influenza strain to drug", "setting": "A/WSN/33 (H1N1) [1]", "value": "S"}, {"measurement": "Sensitivity of influenza strain to drug", "setting": "A/Udorn/72 (H3N2)", "value": "S"}, {"measurement": "Sensitivity of influenza strain to drug", "setting": "[2]", "value": "S"}, {"measurement": "Sensitivity of influenza strain to drug", "setting": "[3]", "value": "S"}, {"measurement": "Sensitivity of influenza strain to drug", "setting": "A/Texas/04/2009 (H1N1)", "value": "R (H275Y)"}, {"measurement": "Sensitivity of influenza strain to drug", "setting": "[4]", "value": "S"}, {"measurement": "Sensitivity of influenza strain to drug", "setting": "[5]", "value": "R (H275Y)"}, {"measurement": "Sensitivity of influenza strain to drug", "setting": "[6]", "value": "S"}, {"measurement": "Sensitivity of influenza strain to drug", "setting": "[7]", "value": "S"}, {"measurement": "Sensitivity of influenza strain to drug", "setting": "[8]", "value": "S"}, {"measurement": "antiviral effect by time of addition", "setting": "A/WSN/33 (H1N1) [9]", "value": "potent antiviral effect even when added 8 hours post initial viral infection"}]}, {"compound": "Cc1onc(-c2ccccc2)c1C(=O)N1CCN(c2ccc([N+](=O)[O-])cc2Cl)CC1", "note": "[nucleozin (21), nucleozin]", "values": [{"measurement": "viral polymerase activity (normalized luciferase ratio)", "setting": "[10]", "value": "completely inhibited the viral polymerase activity"}]}, {"compound": "O=C(NC(=O)c1c(F)cccc1Cl)NC1c2ccccc2-c2ccccc21", "note": "[TMN355 (2)]", "values": [{"measurement": "effect on replication of several influenza A and B strains", "setting": "[11]", "value": "had no effect on the replication"}, {"measurement": "potency in inhibiting the isomerase activity of CypA relative to CsA (1)", "setting": "[12]", "value": 27, "unit": "times"}]}]}
